From ChEMBL document CHEMBL1201862, “PubChem BioAssay data set” (2004)
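Assay format: 96-well plates, 48-hour exposure. The concentration for 50% growth inhibition is given as GI50.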 Active and inactive are the calls of the source. No stated cut-off is given here; in the data, active = GI50 up to about 1.1 µM and inactive = higher.

How the values were obtained:
Assay in all cases: growth of human tumour cells (NCI), 48 h
[1] = system: 786-0
[2] = system: A498
[3] = system: ACHN
[4] = system: BT-549
[5] = system: CAKI-1
[6] = system: DU-145
[7] = system: EKVX
[8] = system: HCT-15
[9] = system: HOP-62
[10] = system: HOP-92
[11] = system: KM12
[12] = system: NCI-H226
[13] = system: NCI-H23
[14] = system: NCI-H460
[15] = system: NCI-H522
[16] = system: SF-268
[17] = system: SF-539
[18] = system: UO-31
[19] = system: IGROV-1
[20] = system: SK-MEL-2

Measured: GI50

COc1cc(C(=O)N(Cc2cccnc2)C(=S)N(Cc2cccnc2)C(=O)c2cc(OC)c(OC)c(OC)c2)cc(OC)c1OC
37.7 µM: [8]
inactive: [1] 36.2 µM | [2] 23.2 µM | [3] > 100 µM | [4] 28.5 µM | [5] 30.4 µM | [6] 52.2 µM | [7] > 100 µM | [9] 37.5 µM | [10] 15.1 µM | [11] 22.4 µM | [12] > 100 µM | [13] 49.2 µM | [14] 94 µM | [15] 23.9 µM | [16] 40.4 µM | [17] > 100 µM | [18] 49.8 µM

Cc1cc2c(cc1Cl)SC(NNc1cnc3ccccc3n1)=NS2(=O)=O
75.2 µM: [8]
inactive: [1] 38.3 µM | [2] 22.8 µM | [3] > 100 µM | [4] > 100 µM | [5] > 100 µM | [6] > 100 µM | [7] > 100 µM | [9] 41.7 µM | [10] 35.7 µM | [19] 41.8 µM | [11] 74.3 µM | [12] 44.4 µM | [13] > 100 µM | [14] 33.8 µM | [15] > 100 µM | [16] 32.3 µM | [17] 29.4 µM | [18] 30.4 µM

CC1=CC[C@@]2(CO)[C@@H]([C@@H]1C)[C@H]1CC[C@@H]3[C@@]4(C)CC[C@H](O)C(C)(C)[C@@H]4CC[C@@]3(C)[C@]1(C)C[C@@H]2O
inactive: [1] 24.5 µM | [2] 24 µM | [3] 20.7 µM | [4] 20.3 µM | [5] 19.8 µM | [6] 23 µM | [7] 33.3 µM | [9] 14.3 µM | [10] 16.9 µM | [19] 29.3 µM | [11] 38.5 µM | [12] 27.2 µM | [13] 17.5 µM | [14] 16.3 µM | [15] 8.91 µM | [16] 21 µM | [18] 53.3 µM
46.3 µM: [8]

COc1ccc(/C=N/NC(=S)Nc2cc(C)ccc2OC)cc1
10 µM: [8]
inactive: [1] 22.7 µM | [2] 35.2 µM | [3] 37.2 µM | [4] 26.6 µM | [5] 29.7 µM | [6] 45 µM | [7] 20.8 µM | [9] 34.8 µM | [10] 25.2 µM | [19] 33.5 µM | [11] 31.7 µM | [13] 29.8 µM | [15] 19.3 µM | [16] 48.9 µM | [17] 24.5 µM | [20] 19.8 µM | [18] 37.9 µM

COc1ccc(-c2cc(-c3ccccc3)c3c(n2)-c2ccccc2NC(=O)C3)cc1
17.7 µM: [8]
inactive: [1] 29 µM | [2] > 100 µM | [3] 35.1 µM | [4] > 100 µM | [5] 40.9 µM | [6] > 100 µM | [7] 40.3 µM | [9] 36 µM | [10] 27 µM | [19] 13.8 µM | [11] 35.4 µM | [12] 58.2 µM | [13] > 100 µM | [14] 25.9 µM | [16] 23.7 µM | [17] > 100 µM | [20] 32.7 µM | [18] > 100 µM

Cc1nc(C)c(N2CCN([N+](=O)[O-])CC2)c(O)n1
inactive: [1] > 100 µM | [2] > 100 µM | [3] > 100 µM | [4] > 100 µM | [5] > 100 µM | [6] > 100 µM | [7] > 100 µM | [9] > 100 µM | [10] > 100 µM | [19] > 100 µM | [11] > 100 µM | [12] > 100 µM | [13] > 100 µM | [14] > 100 µM | [15] > 100 µM | [16] > 100 µM | [17] > 100 µM | [18] > 100 µM
> 100 µM: [8]

CC1OC2OC3C(OCC(O)C3O)OC(=O)[C@]34CCC(C)(C)CC3C3=CCC5[C@@]6(C)C[C@H](O)[C@H](OC7OC(CO)C(O)C(O)C7OC7OC(COC(=O)CC(C)(O)CC(=O)OC1C(OC1OC(CO)C(O)C(O)C1O)C2O)C(O)C(O)C7O)[C@@](C)(CO)C6CC[C@@]5(C)[C@]3(C)CC4 (stereo partly drawn)
inactive: [1] 2.84 µM | [3] 2.72 µM | [4] 6.03 µM | [5] 7.53 µM | [6] 2.61 µM | [9] 1.46 µM | [10] 2.24 µM | [19] 3.9 µM | [11] 2.37 µM | [12] 7.91 µM | [13] 1.51 µM | [14] 9.55 µM | [15] 2 µM | [16] 2.94 µM | [17] 5.46 µM | [20] 1.58 µM | [18] 1.64 µM
6.25 µM: [8]

COC(=O)/C=C\C(C#N)(C#N)/N=C/c1ccsc1
active: [15] 0.662 µM
inactive: [1] 1.37 µM | [2] 18.8 µM | [3] 1.42 µM | [4] 1.84 µM | [5] 2.26 µM | [6] 8.05 µM | [7] 4.46 µM | [9] 16.9 µM | [10] 1.74 µM | [19] 9.08 µM | [11] 14.5 µM | [12] 20.4 µM | [13] 7.45 µM | [14] 17.3 µM | [16] 15.2 µM | [20] 16.9 µM | [18] 3.03 µM
1.55 µM: [8]

CC(=O)N(CCCCNC(=O)C(F)(F)F)CCCNC(=O)C(F)(F)F
inactive: [1] > 100 µM | [2] > 100 µM | [3] > 100 µM | [4] > 100 µM | [6] > 100 µM | [7] > 100 µM | [9] > 100 µM | [10] > 100 µM | [19] > 100 µM | [11] > 100 µM | [12] > 100 µM | [13] > 100 µM | [14] > 100 µM | [15] > 100 µM | [16] > 100 µM | [17] > 100 µM | [20] > 100 µM | [18] > 100 µM
> 100 µM: [8]

CSc1ccc(/C=C2\N=C(c3ccccc3)N(c3nc4ccc(Sc5ccccc5)cc4[nH]3)C2=O)cc1
inactive: [1] 13.9 µM | [2] 18.2 µM | [3] 30.8 µM | [4] 18.3 µM | [5] 21.5 µM | [6] 27.6 µM | [7] 31 µM | [9] 17.2 µM | [10] 33.6 µM | [19] 36.5 µM | [11] 15.3 µM | [13] 26.3 µM | [14] 19.1 µM | [15] 15.9 µM | [16] 27.6 µM | [20] 13 µM | [18] 18.3 µM
18.2 µM: [8]

COc1cccc(-c2c(C#N)c(N)nc3c2CCS(=O)(=O)c2ccc(C)cc2-3)c1
> 100 µM: [8]
inactive: [1] 61.7 µM | [2] > 100 µM | [3] > 100 µM | [4] > 100 µM | [5] > 100 µM | [6] > 100 µM | [9] > 100 µM | [10] > 100 µM | [19] > 100 µM | [11] > 100 µM | [12] > 100 µM | [13] > 100 µM | [14] > 100 µM | [15] > 100 µM | [16] > 100 µM | [20] > 100 µM | [18] > 100 µM
